Drawing on patent US10988478B1, “Pyrazolo[1,5a]pyrimidine derivatives as IRAK4 modulators” (Genentech, Inc., priority 2015, dated 2021), this text covers Ki for 31 molecules.

pKi: −log10 of the molar value.

Sequence of human IRAK4 (Q9NWZ3 whole entry, the tested form may be a part): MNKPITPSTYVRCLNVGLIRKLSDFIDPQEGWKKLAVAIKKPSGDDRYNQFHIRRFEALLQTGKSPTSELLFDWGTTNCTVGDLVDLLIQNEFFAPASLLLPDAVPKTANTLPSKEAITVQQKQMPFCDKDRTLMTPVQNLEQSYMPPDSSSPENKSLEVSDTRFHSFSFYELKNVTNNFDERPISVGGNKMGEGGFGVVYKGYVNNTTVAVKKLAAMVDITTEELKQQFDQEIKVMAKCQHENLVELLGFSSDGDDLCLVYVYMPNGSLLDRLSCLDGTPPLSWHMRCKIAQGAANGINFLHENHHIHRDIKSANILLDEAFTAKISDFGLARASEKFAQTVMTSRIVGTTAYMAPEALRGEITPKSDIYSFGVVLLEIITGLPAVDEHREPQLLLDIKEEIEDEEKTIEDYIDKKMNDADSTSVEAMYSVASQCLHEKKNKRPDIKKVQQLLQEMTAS

In the assay the target is human IRAK4 (Homo sapiens (Human), UniProt Q9NWZ3). Description: IRAK4 kinase inhibition, Transcreener fluorescence polarization ADP assay. Particulars: recombinant full-length His6-IRAK4; 125 uM ATP; 90 min; Ki computed using ATP Km 642 uM. In kind it is biochemical. How it is done:
Compounds were assayed for inhibition of human IRAK4 and IRAK1 catalytic activity using recombinant enzyme produced from insect cells. Full-length IRAK4 protein, carrying an N-terminal His6-Tag, was obtained from Life Technologies (Carlsbad, Calif., USA). The IRAK1 construct was produced internally and was comprised of IRAK1 residues Arg194 to Ser712, preceded by an NH2-terminal His6 tag and the coding sequence for glutathione-S-transferase.
Background: Fluorescence polarisation rises when a labelled molecule tumbles more slowly, as on binding a larger partner.
Broadly, the pKi is the Ki on a negative log10 scale, so that one unit is a factor of ten. As to `CC1(C)Cc2cc(NC(=O)c3cnn4cc(C(F)(F)F)cnc34)c(N3CCOCC3)cc2O1` [Example 69, N-(2,2-Dimethyl-6-morpholino-2,3-dihydrobenzofuran-5-yl)-6-(trifluoromethyl)pyrazolo[1,5-a]pyrimidine-3-carboxamide], the pKi was 7.57. Consider `CC1(C)Cc2cc(NC(=O)c3cnn4cccnc34)c(OCC(F)(F)F)cc2O1` [Example 70, N-[2,2-Dimethyl-6-(2,2,2-trifluoroethoxy)-3H-benzofuran-5-yl]pyrazolo[1,5-a]pyrimidine-3-carboxamide], for which the pKi is 7.55. As to `C[C@]1(CO)Cc2cc(NC(=O)c3cnn4cccnc34)c(C(F)(F)F)cc2O1` [Example 71, N-[(2R)-2-(Hydroxymethyl)-2-methyl-6-(trifluoromethyl)-3H-benzofuran-5-yl]pyrazolo[1,5-a]pyrimidine-3-carboxamide], the pKi was 6.04. The same measure for `C[C@@]1(CO)Cc2cc(NC(=O)c3cnn4cccnc34)c(C(F)(F)F)cc2O1` [Example 72, N-[(2S)-2-(hydroxymethyl)-2-methyl-6-(trifluoromethyl)-3H-benzofuran-5-yl]pyrazolo[1,5-a]pyrimidine-3-carboxamide]: 6.35; for `C[C@@]1(CO)Cc2cc(NC(=O)c3cnn4cccnc34)c(C(F)F)cc2O1` [Example 73, N-[(2S)-6-(Difluoromethyl)-2-(hydroxymethyl)-2-methyl-3H-benzofuran-5-yl]pyrazolo[1,5-a]pyrimidine-3-carboxamide]: 6.44; for `C[C@]1(CO)Cc2cc(NC(=O)c3cnn4cccnc34)c(C(F)F)cc2O1` [Example 74, N-[(2R)-6-(difluoromethyl)-2-(hydroxymethyl)-2-methyl-3H-benzofuran-5-yl]pyrazolo[1,5-a]pyrimidine-3-carboxamide]: 6.12.

As for `CC1(CO)Cc2cc(NC(=O)c3cnn4cc(C(F)F)cnc34)c(N3CCOCC3)cc2O1` (stereo not shown) [Example 75, 6-(Difluoromethyl)-N-[2-(hydroxymethyl)-2-methyl-6-morpholino-3H-benzofuran-5-yl]pyrazolo[1,5-a]pyrimidine-3-carboxamide], the pKi is 7.19. Then `C[C@]1(C(F)(F)F)Cc2cc(NC(=O)c3cnn4cccnc34)c(N3CCOCC3)cc2O1` [Example 76, (R)—N-(2-Methyl-6-morpholino-2-(trifluoromethyl)-2,3-dihydrobenzofuran-5-yl)pyrazolo[1,5-a]pyrimidine-3-carboxamide], with 7.60. Then `C[C@@]1(C(F)(F)F)Cc2cc(NC(=O)c3cnn4cccnc34)c(N3CCOCC3)cc2O1` [Example 77, (S)—N-(2-methyl-6-morpholino-2-(trifluoromethyl)-2,3-dihydrobenzofuran-5-yl)pyrazolo[1,5-a]pyrimidine-3-carboxamide], with 7.89; and `C[C@]1(CO)Cc2cc(NC(=O)c3cnn4cccnc34)c(N3CCOCC3)c(Cl)c2O1` [Example 80, (R)—N-(7-Chloro-2-(hydroxymethyl)-2-methyl-6-morpholino-2,3-dihydrobenzofuran-5-yl)pyrazolo[1,5-a]pyrimidine-3-carboxamide], with 7.47; and `C[C@@]1(CO)Cc2cc(NC(=O)c3cnn4cccnc34)c(N3CCOCC3)c(Cl)c2O1` [Example 81, (S)—N-(7-chloro-2-(hydroxymethyl)-2-methyl-6-morpholino-2,3-dihydrobenzofuran-5-yl)pyrazolo[1,5-a]pyrimidine-3-carboxamide], with 7.00. The same measure for `CC1(C)COc2cc(N3CCOCC3)c(NC(=O)c3cnn4cccnc34)cc2N1` [Example 82, N-(3,3-Dimethyl-7-morpholino-3,4-dihydro-2H-benzo[b][1,4]oxazin-6-yl)pyrazolo[1,5-a]pyrimidine-3-carboxamide]: 6.72; for `Cc1c2c(cc(NC(=O)c3cnn4cccnc34)c1N1CCOCC1)C[C@](C)(CO)O2` [Example 83, (R)—N-(2-(Hydroxymethyl)-2,7-dimethyl-6-morpholino-2,3-dihydrobenzofuran-5-yl)pyrazolo[1,5-a]pyrimidine-3-carboxamide]: 7.21; for `Cc1c2c(cc(NC(=O)c3cnn4cccnc34)c1N1CCOCC1)C[C@@](C)(CO)O2` [Example 84, (S)—N-(2-(hydroxymethyl)-2,7-dimethyl-6-morpholino-2,3-dihydrobenzofuran-5-yl)pyrazolo[1,5-a]pyrimidine-3-carboxamide]: 7.62. As to `CC(=O)c1cnc2c(C(=O)Nc3cc4c(cc3N3CCOCC3)O[C@@](C)(CO)C4)cnn2c1` [Example 85, (R)-6-Acetyl-N-(2-(hydroxymethyl)-2-methyl-6-morpholino-2,3-dihydrobenzofuran-5-yl)pyrazolo[1,5-a]pyrimidine-3-carboxamide], the pKi is 7.77. For `CC(=O)c1cnc2c(C(=O)Nc3cc4c(cc3N3CCOCC3)O[C@](C)(CO)C4)cnn2c1` [Example 86, (S)-6-Acetyl-N-(2-(hydroxymethyl)-2-methyl-6-morpholino-2,3-dihydrobenzofuran-5-yl)pyrazolo[1,5-a]pyrimidine-3-carboxamide], the pKi was 7.31. Consider `C[C@]1(CO)Cc2cc(NC(=O)c3cnn4cccnc34)c(N3CCN(CCO)CC3)cc2O1` [Example 87, N-[(2R)-6-[4-(2-Hydroxyethyl)piperazin-1-yl]-2-(hydroxymethyl)-2-methyl-3H-benzofuran-5-yl]pyrazolo[1,5-a]pyrimidine-3-carboxamide], for which the pKi is 7.72. For `C[C@@]1(CO)Cc2cc(NC(=O)c3cnn4cccnc34)c(N3CCN(CCO)CC3)cc2O1` [Example 88, N-[(2S)-6-[4-(2-Hydroxyethyl)piperazin-1-yl]-2-(hydroxymethyl)-2-methyl-3H-benzofuran-5-yl]pyrazolo[1,5-a]pyrimidine-3-carboxamide], the pKi is 8.12. In the case of `CC1(C)Cc2cc(NC(=O)c3cnn4cccnc34)c(C3CCN(CC(F)F)CC3)cc2O1` [Example 89, N-[6-[1-(2,2-Difluoroethyl)-4-piperidyl]-2,2-dimethyl-3H-benzofuran-5-yl]pyrazolo[1,5-a]pyrimidine-3-carboxamide], the pKi was 7.59. For the molecule `CC1(C)Cc2cc(NC(=O)c3cnn4cccnc34)c(C3CCN(CC(F)(F)F)CC3)cc2O1` [Example 90, N-[2,2-Dimethyl-6-[1-(2,2,2-trifluoroethyl)-4-piperidyl]-3H-benzofuran-5-yl]pyrazolo[1,5-a]pyrimidine-3-carboxamide], the pKi was 7.37. Consider `CC1(C)Cc2cc(NC(=O)c3cnn4cc(C(F)F)cnc34)c(N3CCOCC3)cc2O1` [Example 91, 6-(Difluoromethyl)-N-(2,2-dimethyl-6-morpholino-3H-benzofuran-5-yl)pyrazolo[1,5-a]pyrimidine-3-carboxamide], for which the pKi is 7.41. As to `CC1(C)Cc2cc(NC(=O)c3cnn4cccnc34)c(N3CC[C@](C)(CO)C3)cc2O1` [Example 94, (S)—N-(6-(3-(hydroxymethyl)-3-methylpyrrolidin-1-yl)-2,2-dimethyl-2,3-dihydrobenzofuran-5-yl)pyrazolo[1,5-a]pyrimidine-3-carboxamide], the pKi is 7.54.

As to `CC1(C)Cc2cc(NC(=O)c3cnn4cccnc34)c(N3CC[C@@](C)(CO)C3)cc2O1` [Example 95, (R)—N-(6-(3-(hydroxymethyl)-3-methylpyrrolidin-1-yl)-2,2-dimethyl-2,3-dihydrobenzofuran-5-yl)pyrazolo[1,5-a]pyrimidine-3-carboxamide], the pKi was 7.60.

On to `CC[C@@]1(C)Cc2cc(NC(=O)c3cnn4cccnc34)c(N3CCOCC3)cc2O1` [Example 96, (S)—N-(2-ethyl-2-methyl-6-morpholino-2,3-dihydrobenzofuran-5-yl)pyrazolo[1,5-a]pyrimidine-3-carboxamide], for which the pKi is 7.85. The same measure for `C[C@]1(CO)Cc2cc(NC(=O)c3cnn4cccnc34)c(N3CCN(CC(F)F)CC3)cc2O1` [Example 98, N-[(2R)-6-[4-(2,2-Difluoroethyl)piperazin-1-yl]-2-(hydroxymethyl)-2-methyl-3H-benzofuran-5-yl]pyrazolo[1,5-a]pyrimidine-3-carboxamide]: 8.55. `C[C@@]1(CO)Cc2cc(NC(=O)c3cnn4cccnc34)c(N3CCN(CC(F)F)CC3)cc2O1` [Example 99, N-[(2S)-6-[4-(2,2-difluoroethyl)piperazin-1-yl]-2-(hydroxymethyl)-2-methyl-3H-benzofuran-5-yl]pyrazolo[1,5-a]pyrimidine-3-carboxamide]: the pKi is 8.48. As to `CC1(C)Cc2cc(NC(=O)c3cnn4cccnc34)c(N3CCc4cncn4CC3)cc2O1` [Example 101, N-[2,2-dimethyl-6-(5,6,8,9-tetrahydroimidazo[1,5-d][1,4]diazepin-7-yl)-3H-benzofuran-5-yl]pyrazolo[1,5-a]pyrimidine-3-carboxamide], the pKi was 7.49. The same measure for `CC1(C)Cc2cc(NC(=O)c3cnn4cccnc34)c(-n3cnc(CO)c3)cc2O1` [Example 102, N-[6-[4-(hydroxymethyl)imidazo 1-1-yl]-2,2-dimethyl-3H-benzofuran-5-yl]pyrazolo[1,5-a]pyrimidine-3-carboxamide]: 6.72; for `CC1(C)Cc2cc(NC(=O)c3cnn4cccnc34)c(-n3ccnc3)cc2O1` [Example 103, N-(6-imidazol-1-yl-2,2-dimethyl-3H-benzofuran-5-yl)pyrazolo[1,5-a]pyrimidine-3-carboxamide]: 7.06. Regarding `CC1CCCN1c1cc2c(cc1NC(=O)c1cnn3cccnc13)CC(C)(C)O2` (stereo not shown) [Example 104, N-[2,2-dimethyl-6-(2-methylpyrrolidin-1-yl)-3H-benzofuran-5-yl]pyrazolo[1,5-a]pyrimidine-3-carboxamide], the negative-log Ki (pKi) was 7.66.

With `CC1(O)CN(c2cc3c(cc2NC(=O)c2cnn4cccnc24)CC(C)(C)O3)C1` [Example 105, N-[6-(3-hydroxy-3-methyl-azetidin-1-yl)-2,2-dimethyl-3H-benzofuran-5-yl]pyrazolo[1,5-a]pyrimidine-3-carboxamide], the pKi was 6.14.
